The values that follow come from ChEMBL document CHEMBL4483862, “Open-source discovery of chemical leads for next-generation chemoprotective antimalarials” (2018).

Structures are written as SMILES.

The subject of this test is Plasmodium berghei. The test can be described thus: Luciferase/luciferin-expressing antifolate-resistant parasites were used to infect a culture of HepG2 cells that were pre-incubated with compounds. Infected hepatocytes emit light due to the luciferase reaction. Assay results are presented as the percent inhibition of light emission compared to control. […]. Type of test: functional. The conditions noted are these: sporozoite; for IC90: read-out: LUCIFERASE INFECTION ASSAY - IC90.

Setting [1] is: read-out: LUCIFERASE INFECTION ASSAY - IC50.

What is called IC50 is the midpoint of a concentration-inhibition curve. As usually defined, the IC90 is the concentration needed for an effect of 90%. Regarding `Cc1nc(C(C)(C)C)nc2sc(C(=O)NNC(=O)c3ccccn3)c(C)c12`, the 90% effect concentration (IC90) is more than 10 µM. Besides, under setting [1], the IC50 is 8.36 µM.
On to `COc1ccc(Nc2nccn3c(-c4cccc(C(=O)NCCO)c4)cnc23)cc1`, for which the concentration for an effect of 90% (IC90) amounted to 4.59 µM. For the same compound, the IC50 (FFLUC_HILL_SLOPE 1.47, FFLUC_R_SQUARED 0.89, PBLUC_HILL_SLOPE 0.68, PBLUC_R_SQUARED 0.895, read-out: LUCIFERASE INFECTION ASSAY - IC50) was 0.181 µM.
In the case of `O=S(=O)(c1ccc2oc(Nc3ccc(Cl)c(C(F)(F)F)c3)nc2c1)N1CCOCC1`, the IC90 is more than 10 µM. Besides, the IC50 (HEPG2TOX_HILL_SLOPE 6.56, HEPG2TOX_R_SQUARED 0.393, PBLUC_HILL_SLOPE 2.74, PBLUC_R_SQUARED 0.701, read-out: LUCIFERASE INFECTION ASSAY - IC50) came to 4.51 µM.
Turning to `OC1CCC(Nc2nn3c(-c4ccc(F)c(Cl)c4)cnc3s2)CC1` (stereo not given), the IC90 was more than 9 µM. Moreover, under setting [1], the IC50 is more than 9 µM.
As for `O=C(NCCSCc1ccc2nonc2c1)c1ccc(Cl)cc1Cl`, the 90% effect concentration (IC90) was more than 8.63 µM. Further, the IC50 under setting [1] is more than 8.63 µM.
As to `CSCCC(NCc1cc(C)n(-c2ccnn2C(C)C)c1C)c1nc2ccccc2[nH]1` (stereo not given), the IC90 was more than 10 µM. Also, the IC50 under setting [1] is more than 10 µM.
For the compound `O=C(NC1CC1)c1ccc(CN(C(=O)Nc2cccc3ccccc23)C2CC2)cc1`, the concentration for an effect of 90% (IC90) is 4.41 µM. Moreover, the IC50 (PBLUC_HILL_SLOPE 14, PBLUC_R_SQUARED 0.411, read-out: LUCIFERASE INFECTION ASSAY - IC50) came out at 3.77 µM.
With `Cc1sc2nc(-c3cccnc3)nc(NC3CCC(O)CC3)c2c1-c1ccccc1` (stereo not given), the 90% effect concentration (IC90) was more than 10 µM. Moreover, the half-maximal inhibitory concentration (IC50) under setting [1] is more than 10 µM.
As for `O=C1Nc2ccc(Cl)cc2/C1=C/c1ccc(-c2ccccc2)cc1`, the IC90 was more than 10 µM. In addition, the IC50 (FFLUC_HILL_SLOPE 2.74, FFLUC_R_SQUARED 0.354, PBLUC_HILL_SLOPE 5.72, PBLUC_R_SQUARED 0.824, read-out: LUCIFERASE INFECTION ASSAY - IC50) was 8.45 µM.
On to `CCCn1c(NC(=O)C2CCN(S(=O)(=O)c3cccc(Cl)c3Cl)CC2)nc2ccccc21`, for which the 90% effect concentration (IC90) stood at 6.16 µM. The IC50 (HEPG2TOX_HILL_SLOPE 3.25, HEPG2TOX_R_SQUARED 0.759, PBLUC_HILL_SLOPE 100, PBLUC_R_SQUARED 0.016, read-out: LUCIFERASE INFECTION ASSAY - IC50) was determined as 6.02 µM.
As to `C(=N\N1CCN(c2ccccn2)CC1)/C1=C(Sc2nc3ccccc3s2)CCCC1`, the concentration for an effect of 90% (IC90) was more than 10 µM. The IC50 (HEPG2TOX_HILL_SLOPE 7.72, HEPG2TOX_R_SQUARED 0.819, PBLUC_HILL_SLOPE 7.09, PBLUC_R_SQUARED 0.503, read-out: LUCIFERASE INFECTION ASSAY - IC50) stood at 7.43 µM.
On to `O=C(Nc1nnc[nH]1)C1(c2ccc(F)cc2)CC1`, for which the IC90 is more than 10 µM. Besides, the IC50 under setting [1] is more than 10 µM.
Consider `COc1ccc(-c2nnc(SC(C)C(=O)NC(C)c3ccc(Cl)cc3Cl)[nH]2)cc1` (stereo not given), for which the concentration for an effect of 90% (IC90) is more than 10 µM. For the setting “PBLUC_HILL_SLOPE 2.09, PBLUC_R_SQUARED 0.0748, read-out: LUCIFERASE INFECTION ASSAY - IC50”, the concentration for half-maximal inhibition (IC50) came to 5.53 µM.
In the case of `O=C(Cn1cnc2cc(N3CCOCC3)c([N+](=O)[O-])cc2c1=O)c1ccc(C2CCCCC2)cc1`, the IC90 is more than 10 µM. The IC50 under setting [1] is more than 10 µM.
For `Cc1cc(C(=O)NCCNC(=O)c2cccn2C)c2nc3n(c2n1)CCCCC3`, the IC90 was more than 10 µM. Under setting [1], the IC50 is more than 10 µM.
With `Cc1cc(C)c(C(=O)CSc2cc(C)c3cccc(C)c3n2)c(C)c1`, the concentration for an effect of 90% (IC90) was more than 10 µM. The half-inhibitory concentration (IC50) (FFLUC_HILL_SLOPE 3.04, FFLUC_R_SQUARED 0.417, HEPG2TOX_HILL_SLOPE 2.16, HEPG2TOX_R_SQUARED 0.191, read-out: LUCIFERASE INFECTION ASSAY - IC50) was more than 10 µM.
As for `CC(CC(=O)Nc1ccc(Cl)cc1)NCC(C)(C)N1CCOCC1` (stereo not given), the 90% effect concentration (IC90) was more than 10 µM. For the setting “PBLUC_HILL_SLOPE 1.7, PBLUC_R_SQUARED 0.0143, read-out: LUCIFERASE INFECTION ASSAY - IC50”, the IC50 stood at 4.7 µM.
Regarding `COc1ccc(-n2nc(C)c3c2NC(=O)CC3c2ccc(O)cc2)cc1` (stereo not given), the IC90 was more than 9.45 µM. Also, the 50% inhibitory concentration (IC50) under setting [1] was more than 9.45 µM.
For the compound `COc1cccc(/C=C/C(=O)Oc2c(Cl)cc(Cl)c3ccc(C)nc23)c1OC`, the 90% effect concentration (IC90) turned out to be 9.03 µM. Also, the IC50 (PBLUC_HILL_SLOPE 3.32, PBLUC_R_SQUARED 0.808, read-out: LUCIFERASE INFECTION ASSAY - IC50) amounted to 4.66 µM.
For `CCN1CCc2nc(NC(=O)C3(c4ccc(Br)cc4)CC3)sc2C1`, the IC90 turned out to be 3.64 µM. For the same compound, the IC50 (HEPG2TOX_HILL_SLOPE 12.5, HEPG2TOX_R_SQUARED 0.865, PBLUC_HILL_SLOPE 12.4, PBLUC_R_SQUARED 0.642, read-out: LUCIFERASE INFECTION ASSAY - IC50) turned out to be 3.05 µM.
As for `CCCCOc1ccc(Nc2nc(C(N)CCc3ccccc3)cs2)nn1` (stereo not given), the IC90 was more than 8.6 µM. The IC50 under setting [1] is more than 8.6 µM.
Consider `CN1CCN(c2ccc(-c3cn4c(-c5ccc(Oc6ccccc6)cc5)cnc4cn3)cn2)CC1`, for which the 90% effect concentration (IC90) is more than 7.13 µM. Besides, the IC50 under setting [1] stood at 6.77 µM.
Regarding `O=C(c1ccc(Cn2cccn2)cc1)N(C/C=C/c1ccccc1)c1ccc2c(c1)OCCO2`, the 90% effect concentration (IC90) is 5.09 µM. Further, the IC50 (PBLUC_HILL_SLOPE 14.4, PBLUC_R_SQUARED 0.81, read-out: LUCIFERASE INFECTION ASSAY - IC50) turned out to be 4.37 µM.
As to `Fc1ccc(-c2cnn3c(NCCCN4CCOCC4)ccnc23)cc1Cl`, the concentration for an effect of 90% (IC90) was more than 8.46 µM. Moreover, the concentration for half-maximal inhibition (IC50) (PBLUC_HILL_SLOPE 1.9, PBLUC_R_SQUARED 0.489, read-out: LUCIFERASE INFECTION ASSAY - IC50) came to 4.05 µM.
`C=CCN(C(=O)c1cccc(C)c1[N+](=O)[O-])c1nc2c(s1)CCCC2`: the IC90 was more than 10 µM. Moreover, the concentration for half-maximal inhibition (IC50) (PBLUC_HILL_SLOPE 3.27, PBLUC_R_SQUARED 0.266, read-out: LUCIFERASE INFECTION ASSAY - IC50) was 9.32 µM.
For `CCOC(=O)c1sc(SCc2ccccc2)c2c1CC(c1ccccc1)CC2=O` (stereo not given), the IC90 was more than 7.81 µM. Besides, the IC50 (FFLUC_HILL_SLOPE 10.5, FFLUC_R_SQUARED 0.686, PBLUC_HILL_SLOPE 0.804, PBLUC_R_SQUARED 0.242, read-out: LUCIFERASE INFECTION ASSAY - IC50) is more than 7.81 µM.
For `C=C1SC(Nc2cc(C)cc(C)c2)=NC1(C)C`, the concentration for an effect of 90% (IC90) is more than 13.4 µM. For the same compound, the IC50 (PBLUC_HILL_SLOPE 0.95, PBLUC_R_SQUARED 0.559, read-out: LUCIFERASE INFECTION ASSAY - IC50) was more than 13.4 µM.
In the case of `Cc1c(C)n(CCCO)c2ncn3nc(-c4ccc(F)cc4)nc3c12`, the IC90 worked out at 5.99 µM. Also, the IC50 (FFLUC_HILL_SLOPE 1.57, FFLUC_R_SQUARED 0.582, PBLUC_HILL_SLOPE 0.753, PBLUC_R_SQUARED 0.936, read-out: LUCIFERASE INFECTION ASSAY - IC50) came out at 0.324 µM.
For the compound `N#Cc1ccnc(N2CCN(C(=O)c3cccc(-n4cccc4)c3)CC2)c1`, the IC90 turned out to be 2.2 µM. Under “HEPG2TOX_HILL_SLOPE 1.62, HEPG2TOX_R_SQUARED 0.96, PBLUC_HILL_SLOPE 2.46, PBLUC_R_SQUARED 0.842, read-out: LUCIFERASE INFECTION ASSAY - IC50”, the IC50 was determined as 0.901 µM.
Turning to `O=C(Nc1ccc(OC(F)(F)F)cc1)N1CCc2nc(NCc3cccc(Oc4ccccc4)c3)ncc2C1`, the IC90 is more than 6.16 µM. For the same compound, the IC50 under setting [1] was more than 6.16 µM.
